Key:
MCF7 [1] = test: Cytotoxicity against human MCF7 cells after 6 days
BT-474 [2] = test: Cytotoxicity against human BT474 cells after 6 days
[3] = Cytotoxicity against human Hs 578T cells after 6 days
MIA PaCa-2 [4] = test: Cytotoxicity against human MIAPaCa2 cells after 6 days
MCF7 [5] = test: Cytotoxicity against human MCF7 cells after 24 hrs; format: functional, cell-based
BT-474 [6] = test: Cytotoxicity against human BT474 cells after 24 hrs; format: functional, cell-based
[7] = Cytotoxicity against human Hs 578T cells after 24 hrs; format: functional, cell-based
MIA PaCa-2 [8] = test: Cytotoxicity against human MIAPaCa2 cells after 24 hrs; format: functional, cell-based
[9] = Homo sapiens, MCF7, 6 days, read-out: IC50
[10] = Homo sapiens, BT-474, 6 days, read-out: IC50
[11] = Homo sapiens, Hs-578T, 6 days, read-out: IC50
[12] = Homo sapiens, MIA PaCa-2, 6 days, read-out: IC50

Row | SMILES | IC50 (MCF7 [1]; [9]) | IC50 (BT-474 [2]; [10]) | IC50 [3, 11] | IC50 (MIA PaCa-2 [4]; [12]) | also measured
1 | C[C@H]1OC2=C(C(=O)c3ccccc3C2=O)C1(C)C | 5.8 µM | 4.5 µM | > 10 µM | 4.6 µM | 
2 | C[C@H]1OC2=C(C(=O)c3ccc(O)cc3C2=O)C1(C)C | 5.7 µM | 4.9 µM | > 10 µM | 6.7 µM | 
3 | Cc1ccc2c(c1O)C(=O)c1ccccc1C2=O |  |  |  |  | IC50 (MCF7 [5]): Not Active; IC50 (BT-474 [6]): Not Active; IC50 [7]: Not Active; IC50 (MIA PaCa-2 [8]): Not Active
4 | COc1cc2c(cc1O)C(=O)C1=C(O[C@H](C)C1(C)C)C2=O |  |  |  |  | IC50 (MCF7 [1]; mcf7): Not Active; IC50 (BT-474 [2]; bt-474): Not Active; IC50 ([3]; hs-578t): Not Active; IC50 (MIA PaCa-2 [4]; mia paca-2): Not Active
5 | C[C@H]1OC2=C(C(=O)C(=O)c3ccccc32)C1(C)C [(3R)-DUNNIONE] | 2.3 µM | 1 µM | 5 µM | 1.9 µM | 

— ChEMBL document CHEMBL1667721, “Isolation, structure elucidation, and cytotoxic evaluation of furanonaphthoquinones from in vitro plantlets and cultures of Streptocarpus dunnii” (J Nat Prod, 2011)
